Where two headings read alike, the source gives them in different places. Bridge positions count the residues as written; N and C are the ends. Square brackets hold non-standard residues; d marks the D form. Peptide text beside a SMILES is read from it. dPhe(4-F) = N[C@H](Cc1ccc(F)cc1)C(=O)O; Pen = CC(C)(S)[C@H](N)C(=O)O; hCys = N[C@@H](CCS)C(=O)O
Legend:
Format in all cases: cell-based
[1] = biological target: MC1R (Homo sapiens, UniProt Q01726); assay: cAMP assay (β-galactosidase reporter, cAMP Hunter), MC1R; settings: for Ratios of EC50 values MC ¼: EC50(MC1R)/EC50(MC4R)
Sequence of MC1R (Q01726 whole entry): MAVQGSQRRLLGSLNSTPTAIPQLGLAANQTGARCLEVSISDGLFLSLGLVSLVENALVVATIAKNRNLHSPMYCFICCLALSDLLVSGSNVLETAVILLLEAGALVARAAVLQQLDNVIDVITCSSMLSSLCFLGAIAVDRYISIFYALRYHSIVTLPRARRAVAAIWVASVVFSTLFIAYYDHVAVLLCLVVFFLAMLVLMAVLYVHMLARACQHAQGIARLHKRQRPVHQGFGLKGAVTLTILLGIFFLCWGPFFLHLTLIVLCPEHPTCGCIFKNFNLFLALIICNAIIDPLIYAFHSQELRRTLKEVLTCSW
Excerpt: (§1) cAMP Accumulation Measurement Via a β-Galactosidase (β-Gal) Reporter System
(§2) A chemiluminescence readout system that uses an enzyme fragment complementation (EFC) system with β-galactosidase (β-Gal) as the functional reporter system was used. This assay system for various melanocortin receptor systems is commercially available (cAMP Hunter GPCR assay system, Discoverx Corp, Fremont, Calif.). This assay utilizes the β-Gal enzyme that is split into two complementary portions; EA for Enzyme Acceptor and ED for Enzyme Donor. In the assay, the ED portion fused to cAMP is made to compete with cAMP generated by cells for binding to a cAMP-specific antibody. The EA is then added to form active β-Gal with any unbound ED-cAMP.
(§3) Briefly, 10000 cells per well are plated overnight and each well (cells incubated with 10 μl assay buffer) is then incubated with 4× serial concentration of the test compound in the cell assay buffer (5 μL) and cAMP antibody reagent (5 μL) for 30 min at 37° C. The cell lysis buffer (20 μL) containing ED-cAMP coupled enzyme fragment and the reporter substrate (Emerald II-Galacton Star, 5:1) is then added and incubated for 60 min at room temperature. Next, 20 μL of EA β-Gal fragment reagent is added.

[2] = biological target: MC5R (Homo sapiens, UniProt P33032); assay: cAMP assay (β-galactosidase reporter, cAMP Hunter), MC5R; settings: for Ratios of EC50 values MC 5/4: EC50(MC5R)/EC50(MC4R)
Sequence of MC5R (P33032 whole entry): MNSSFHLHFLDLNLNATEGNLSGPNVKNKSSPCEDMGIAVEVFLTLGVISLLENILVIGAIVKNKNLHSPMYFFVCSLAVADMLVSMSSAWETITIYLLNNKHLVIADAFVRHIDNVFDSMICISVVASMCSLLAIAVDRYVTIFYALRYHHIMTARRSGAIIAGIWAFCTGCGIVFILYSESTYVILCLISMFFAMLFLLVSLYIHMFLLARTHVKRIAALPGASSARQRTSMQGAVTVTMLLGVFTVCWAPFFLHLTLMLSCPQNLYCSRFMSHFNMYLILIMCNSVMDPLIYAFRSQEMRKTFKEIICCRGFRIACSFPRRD
Excerpt: as §1, §2, §3

[3] = biological target: MC4R (Homo sapiens, UniProt P32245); assay: cAMP assay (β-galactosidase reporter, cAMP Hunter), MC4R
Sequence of MC4R (P32245 whole entry): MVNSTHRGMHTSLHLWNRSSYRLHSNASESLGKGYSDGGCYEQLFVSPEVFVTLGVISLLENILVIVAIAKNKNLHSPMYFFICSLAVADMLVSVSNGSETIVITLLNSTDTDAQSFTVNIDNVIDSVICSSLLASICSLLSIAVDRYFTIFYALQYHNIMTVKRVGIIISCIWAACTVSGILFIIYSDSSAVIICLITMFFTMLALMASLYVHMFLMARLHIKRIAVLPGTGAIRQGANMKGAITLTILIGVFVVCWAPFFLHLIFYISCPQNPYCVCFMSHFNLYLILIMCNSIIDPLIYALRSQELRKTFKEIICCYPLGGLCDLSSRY
Excerpt: as §1, §2, §3

[4] = biological target: MC3R (Homo sapiens, UniProt P41968); assay: cAMP assay (β-galactosidase reporter, cAMP Hunter), MC3R; settings: for Ratios of EC50 values MC ¾: EC50(MC3R)/EC50(MC4R)
Sequence of MC3R (P41968 whole entry): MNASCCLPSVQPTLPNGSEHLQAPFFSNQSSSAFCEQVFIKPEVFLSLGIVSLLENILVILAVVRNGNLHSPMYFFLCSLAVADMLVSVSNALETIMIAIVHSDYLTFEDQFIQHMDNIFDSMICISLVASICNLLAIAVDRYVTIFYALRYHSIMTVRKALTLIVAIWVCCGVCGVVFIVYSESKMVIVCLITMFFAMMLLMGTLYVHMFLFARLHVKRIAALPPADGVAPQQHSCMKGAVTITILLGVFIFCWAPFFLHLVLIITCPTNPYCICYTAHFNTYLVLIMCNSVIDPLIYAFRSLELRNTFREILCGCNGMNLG
Excerpt: as §1, §2, §3

[5] = agonist cAMP stimulation, read-out: cAMP Assay (EC-50) MC1R
[6] = agonist cAMP stimulation, read-out: cAMP Assay (EC-50) MC5R
[7] = agonist cAMP stimulation, read-out: cAMP Assay (EC-50) MC4R
[8] = agonist cAMP stimulation, read-out: cAMP Assay (EC-50) MC3R

Row | Structure (SMILES) | Ratios of EC50 values MC ¼ [1] | EC50 [1, 5] | Ratios of EC50 values MC 5/4 [2] | EC50 [2, 6] | EC50 [3, 7] | Ratios of EC50 values MC ¾ [4] | EC50 [4, 8] | EC50 ([4]; agonist cAMP stimulation, in uM, read-out: cAMP Assay (EC-50) MC3R) | EC50 [1] | EC50 [2] | EC50 [3] | EC50 [4]
1 | CC(=O)N[C@@H](CCCNC(=N)N)C(=O)N[C@H]1CSSC[C@@H](C(N)=O)NC(=O)[C@H](Cc2c[nH]c3ccccc23)NC(=O)[C@H](CCCNC(=N)N)NC(=O)[C@@H](Cc2ccc(F)cc2)NC(=O)[C@@H]2CCCN2C(=O)[C@@H](C)NC1=O [Compound 14, Ac-Arg-cyclo[Cys-D-Ala-Pro-D-Phe(p-F)-Arg-Trp-Cys]-NH2] (Ac-RC[dA]P[dPhe(4-F)]RWC-NH2; disulfide 2-8) | 7 | 169 nM | 12 | 283 nM | 24 nM | >400 | – | > 10 µM | – | – | – | –
2 | CC(=O)N[C@@H](CCCNC(=N)N)C(=O)N[C@H]1CCSSC[C@@H](C(N)=O)NC(=O)[C@H](Cc2c[nH]c3ccccc23)NC(=O)[C@H](CCCNC(=N)N)NC(=O)[C@@H](Cc2ccccc2)NC(=O)[C@@H](C)NC1=O [Compound 16, Ac-Arg-cyclo[hCys-D-Ala-D-Phe-Arg-Trp-Cys]-NH2] (Ac-R[hCys][dA][dF]RWC-NH2; disulfide 2-7) | 120 | 888 nM | >1338 | > 10000 nM | 7.5 nM | 420 | 3.16 µM | – | – | – | – | –
3 | CC(=O)N[C@@H](CCCNC(=N)N)C(=O)N[C@H]1CSSC[C@@H](C(N)=O)NC(=O)[C@H](Cc2c[nH]c3ccccc23)NC(=O)[C@H](CCCNC(=N)N)NC(=O)[C@@H](Cc2ccccc2)NC(=O)[C@H](Cc2c[nH]cn2)NC(=O)[C@@H](C(C)(C)C)NC1=O [Compound 3, Ac-Arg-cyclo[Cys-D-Tle-His-D-Phe-Arg-Trp-Cys]-NH2] | 1 | 1 nM | 930 | 672 nM | 0.7 nM | 1 | 0.0007 µM | – | – | – | – | –
4 | CC(=O)N[C@@H](CCC(=O)O)C(=O)N[C@H]1CSSC[C@@H](C(N)=O)NC(=O)[C@H](Cc2c[nH]c3ccccc23)NC(=O)[C@H](CCCNC(=N)N)NC(=O)[C@@H](Cc2ccccc2)NC(=O)[C@H](Cc2c[nH]cn2)NC(=O)[C@H](C)NC1=O [Compound 22, Ac-Glu-cyclo[Cys-Ala-His-D-Phe-Arg-Trp-Cys]-NH2] (Ac-ECAH[dF]RWC-NH2; disulfide 2-8) | >3 | – | >2563 | – | – | >20 | – | – | 1.7 nM | 1280 nM | < 0.5 nM | 0.0099 µM
5 | CC(=O)N[C@@H](CCCNC(=N)N)C(=O)N[C@H]1CSSC[C@@H](C(N)=O)NC(=O)[C@H](Cc2c[nH]c3ccccc23)NC(=O)[C@H](CCCNC(=N)N)NC(=O)[C@@H](Cc2ccccc2)NC(=O)[C@H](Cc2ccc(O)cc2)NC(=O)[C@@H](C)NC1=O [Compound 11, Ac-Arg-cyclo[Cys-D-Ala-Tyr-D-Phe-Arg-Trp-Cys]-NH2] (Ac-RC[dA]Y[dF]RWC-NH2; disulfide 2-8) | 6.67 | 301 nM | – | – | 45.1 nM | >22.2 | > 1 µM | – | – | – | – | –
6 | CC(=O)N[C@@H](CCCNC(=N)N)C(=O)N[C@H]1CSSC[C@@H](C(N)=O)NC(=O)[C@H](Cc2c[nH]c3ccccc23)NC(=O)[C@H](CCCNC(=N)N)NC(=O)[C@@H](Cc2ccccc2)NC(=O)[C@H](Cc2cn(C)cn2)NC(=O)[C@@H](C)NC1=O [Compound 6, Ac-Arg-cyclo[Cys-D-Ala-His(1-Me)-D-Phe-Arg-Trp-Cys]-NH2] | 40 | – | 662 | – | – | 6 | – | – | 30.4 nM | 467 nM | 0.7 nM | 0.0043 µM
7 | CC(=O)N[C@@H](CCCNC(=N)N)C(=O)N[C@H]1CSSC[C@@H](C(N)=O)NC(=O)[C@H](Cc2c[nH]c3ccccc23)NC(=O)[C@H](CCCNC(=N)N)NC(=O)[C@@H](Cc2ccccc2)NC(=O)[C@H](Cc2cncn2C)NC(=O)[C@@H](C)NC1=O [Compound 5, Ac-Arg-cyclo[Cys-D-Ala-His(3-Me)-D-Phe-Arg-Trp-Cys]-NH2] | 4 | – | 945 | – | – | 350 | – | – | 4.1 nM | 1080 nM | 1.15 nM | 0.406 µM
8 | CC(=O)N[C@@H](CCCNC(=N)N)C(=O)N[C@H]1CSSC[C@@H](C(N)=O)NC(=O)[C@H](Cc2c[nH]c3ccccc23)NC(=O)[C@H](CCCNC(=N)N)NC(=O)[C@@H](Cc2ccccc2)NC(=O)[C@H](Cc2c[nH]cn2)NC(=O)[C@@H](C(C)C)NC1=O [Compound 4, Ac-Arg-cyclo[Cys-D-Val-His-D-Phe-Arg-Trp-Cys]-NH2] | 0.93 | 1.25 nM | 584 | 782 nM | 1.34 nM | 1.19 | 0.00159 µM | – | – | – | – | –

Further lines, with some results ahead:

Row | Ratios of EC50 values MC ¼ [1] | EC50 [1, 5] | Ratios of EC50 values MC 5/4 [2] | EC50 [2, 6] | EC50 [3, 7] | Ratios of EC50 values MC ¾ [4] | EC50 [4, 8] | EC50 ([4]; agonist cAMP stimulation, in uM, read-out: cAMP Assay (EC-50) MC3R) | Structure (SMILES) | EC50 [1] | EC50 [2] | EC50 [3] | EC50 [4]
9 | 90 | 248 nM | 530 | 1490 nM | 3 nM | 30 | 0.081 µM | – | CC(=O)N[C@@H](CCCNC(=N)N)C(=O)N[C@H]1CSSC[C@@H](C(N)=O)NC(=O)[C@H](Cc2c[nH]c3ccccc23)NC(=O)[C@H](CCCNC(=N)N)NC(=O)[C@@H](Cc2ccccc2)NC(=O)[C@H](CC(N)=O)NC(=O)[C@@H](C)NC1=O [Compound 9, Ac-Arg-cyclo[Cys-D-Ala-Asn-D-Phe-Arg-Trp-Cys]-NH2] (Ac-RC[dA]N[dF]RWC-NH2; disulfide 2-8) | – | – | – | –
10 | 15 | 195 nM | 159 | 2180 nM | 13.7 nM | 17 | 0.233 µM | – | CC(=O)N[C@@H](CCCNC(=N)N)C(=O)N[C@H]1CCSSC(C)(C)[C@@H](C(N)=O)NC(=O)[C@H](Cc2c[nH]c3ccccc23)NC(=O)[C@H](CCCNC(=N)N)NC(=O)[C@@H](Cc2ccccc2)NC(=O)[C@@H](C)NC1=O [Compound 17, Ac-Arg-cyclo[hCys-D-Ala-D-Phe-Arg-Trp-Pen]-NH2] (Ac-R[hCys][dA][dF]RW[Pen]-NH2; disulfide 2-7) | – | – | – | –
11 | 2.31 | 6.2 nM | – | – | 2.7 nM | 1.45 | 0.0039 µM | – | CC(=O)N[C@@H](CCCNC(=N)N)C(=O)N[C@H]1CSSC[C@@H](C(N)=O)NC(=O)[C@H](Cc2c[nH]c3ccccc23)NC(=O)[C@H](CCCNC(=N)N)NC(=O)[C@@H](Cc2ccccc2)NC(=O)[C@H](CCCNC(=N)N)NC(=O)[C@@H](C)NC1=O [Compound 10, Ac-Arg-cyclo[Cys-D-Ala-Arg-D-Phe-Arg-Trp-Cys]-NH2] (Ac-RC[dA]R[dF]RWC-NH2; disulfide 2-8) | – | – | – | –
12 | 15 | 4 nM | 161 | 42 nM | 0.26 nM | 3.8 | 0.001 µM | – | CC(=O)N[C@@H](CCCNC(=N)N)C(=O)N[C@H]1CCSSC[C@@H](C(N)=O)NC(=O)[C@H](Cc2c[nH]c3ccccc23)NC(=O)[C@H](CCCNC(=N)N)NC(=O)[C@@H](Cc2ccccc2)NC(=O)[C@H](C)NC1=O [Compound 15, Ac-Arg-cyclo[hCys-Ala-D-Phe-Arg-Trp-Cys]-NH2] (Ac-R[hCys]A[dF]RWC-NH2; disulfide 2-7) | – | – | – | –
13 | 0.69 | 0.69 nM | 420 | 420 nM | 1 nM | 0.96 | 0.00096 µM | – | CC[C@@H](C)[C@H]1NC(=O)[C@@H](NC(=O)[C@H](CCCNC(=N)N)NC(C)=O)CSSC[C@@H](C(N)=O)NC(=O)[C@H](Cc2c[nH]c3ccccc23)NC(=O)[C@H](CCCNC(=N)N)NC(=O)[C@@H](Cc2ccccc2)NC(=O)[C@H](Cc2c[nH]cn2)NC1=O [Compound 2, Ac-Arg-cyclo[Cys-D-Ile-His-D-Phe-Arg-Trp-Cys]-NH2] | – | – | – | –
14 | 0.68 | 0.47 nM | 130 | 91 nM | 0.7 nM | 1.13 | 0.00079 µM | – | CC(=O)N[C@@H](CCCNC(=N)N)C(=O)N[C@H]1CSSC[C@@H](C(N)=O)NC(=O)[C@H](Cc2c[nH]c3ccccc23)NC(=O)[C@H](CCCNC(=N)N)NC(=O)[C@@H](Cc2ccccc2)NC(=O)[C@H](Cc2c[nH]cn2)NC(=O)[C@@H](CC(C)C)NC1=O [Compound 1, Ac-Arg-cyclo[Cys-D-Leu-His-D-Phe-Arg-Trp-Cys]-NH2] | – | – | – | –
15 | 40 | 71 nM | 155 | 255 nM | 1.6 nM | 5 | 0.0086 µM | – | CC(=O)N[C@@H](CCCNC(=N)N)C(=O)N[C@H]1CSSC[C@@H](C(N)=O)NC(=O)[C@H](Cc2c[nH]c3ccccc23)NC(=O)[C@H](CCCNC(=N)N)NC(=O)[C@@H](Cc2ccccc2)NC(=O)[C@H](CCC(N)=O)NC(=O)[C@@H](C)NC1=O [Compound 8, Ac-Arg-cyclo[Cys-D-Ala-Gln-D-Phe-Arg-Trp-Cys]-NH2] (Ac-RC[dA]Q[dF]RWC-NH2; disulfide 2-8) | – | – | – | –

From patent publication US10196425B2, “Peptide compositions” (RHYTHM PHARMACEUTICALS, INC., priority 2013, dated 2019)
